We go through 1 substance from patent publication EP1618800A1, “Active compositions comprising lycopene, cytidin and fatty acids” (Cognis IP Management GmbH, priority 2004, dated 2006).

Common to all, as to format: biochemical
A short description of test [1]: DPPH Test (radical trapping, photometric at 513 nm). The following applies: Batch A; sample concentration 0.3 % b.w.; average of 2 measurements. The source says: In a first series of tests, the effectiveness of the extracts against oxidative stress was investigated by chemical methods. A commercially available extract of tomatoes, CLA (Tonalin® CLA, Cognis) and their mixtures were used in concentrations of 0.3 % b.w. The first test substrate selected was diphenyl picryl hydrazyl (DPPH), a purple-red coloured stable radical which changes into its colourless leuco derivative on contact with radical trappers. The change of colour was followed photometrically at 513 nm. The test results are set out in Table 1 ("DPPH Test") where the inhibition of DPPH is shown in % absolute.
Background: Loss of DPPH colour is used to gauge radical scavenging.

The nature of test [2]: Salicylic Acid Test (hydroxylation of salicylic acid by hydroxyl radicals, 490 nm). The following applies: sample concentration 0.3 % b.w., average of 2 measurements. On the procedure:
In a second test, the hydroxylation of salicylic acid by hydroxyl radicals (from the reaction of hydrogen peroxide with iron(III) ions and EDTA) was investigated as a reference system. This reaction can also be photometrically investigated because the hydroxylation product is reddish in colour. The influence of the extracts on the formation of hydroxysalicylic acid was measured at an optical density of 490 nm. The results are also set out in Table 1 where inhibition is again shown in % absolute ("Salicylic Acid Test"). Table 1 Radical-trapping properties in % absolute (results are averages of 2 measurements)

A short description of test [3]: Deoxyribose oxidation by hydroxyl radicals (thiobarbituric acid, 532 nm), with or without EDTA. Conditions: sample concentration 0.3 % b.w., average of 2 measurements. How it is done:
In the following test, deoxyribose was used as the test substance. In the presence of hydroxyl radicals formed from H2O2 in the presence of Fe^2+ and EDTA, deoxyribose is oxidized. A pink-coloured substance is formed from the oxidized form by condensation with thiobarbituric acid. The optical density was determined at 532 nm and is dependent on the content of oxidized deoxyribose. A radical-trapping substance reacts with the hydroxyl radicals formed and reduces the formation of pink-coloured substances in this reaction mixture. In addition, the same reaction was carried out without EDTA to investigate complexing properties of the extract with Fe^2+ ions. The concentration of the samples has been again 0.3 % b.w. Table 2 Radical-trapping properties with desoxyribose in % absolute (results are averages of 2 measurements)

A further test has as its system xanthine oxidase. The experiment in a line: Xanthine oxidase test (superoxide radicals detected with luminol, luminol + microperoxidase or NBT). Conditions: sample concentration 0.3 % b.w., average of 2 measurements; for Test with xanthan oxidase, inhibition, NBT: optical density at 490 nm. The source says:
In the next test, the radical-trapping properties of the test samples were investigated using xanthine oxidase as the test system. Under oxidative stress, the enzyme converts purine bases, for example, adenine or guanine, into uric acid with intermediate formation of oxygen radicals which are spontaneously decomposed into H2O2 and oxygen by Superoxid-Dismutase (SOD). These Superoxid radicals can be detected and quantitatively determined by reaction with luminol or luminol and microperoxidase and by NBT via the luminescence and the optical density at 490 nm. The luminescence yield diminishes in the presence of substances with radical-trapping properties. The concentration of the test samples has been at 0.3 % b.w. again. The results are set out in Table 3 where the inhibition is shown in % absolute ("Luminol Test"). Table 3 Test with xanthan oxidase in % absolute (results are averages of 2 measurements)

Turning to conjugated linoleic acid [C2], in test [1], the “DPPH Test, inhibition of DPPH” value is on record as 18 % absolute. In addition, the “Salicylic Acid Test, inhibition” value in test [2] (Batch A) came out at 5 % absolute. For the same substance, the “Salicylic Acid Test, inhibition” value in test [2] (Batch B) is given as 5 % absolute. In test [3] (Batch A), the “Radical-trapping properties with desoxyribose, Reaction with EDTA” value was found to be 1 % absolute and the “Radical-trapping properties with desoxyribose, Reaction without EDTA” value was 0 % absolute. In test [3] (Batch B), the “Radical-trapping properties with desoxyribose, Reaction with EDTA” value is recorded as 0 % absolute and the “Radical-trapping properties with desoxyribose, Reaction without EDTA” value came to 0 % absolute. Besides, in the test on xanthine oxidase (Batch A), the “Test with xanthan oxidase, inhibition, Luminol + Microperoxidase” value was 5 % absolute; the “Test with xanthan oxidase, inhibition, Luminol” value stood at 3 % absolute; the “Test with xanthan oxidase, inhibition, NBT” value worked out at 1 % absolute. Further, in the test on xanthine oxidase (Batch B), the “Test with xanthan oxidase, inhibition, Luminol + Microperoxidase” value is on record as 7 % absolute; the “Test with xanthan oxidase, inhibition, Luminol” value was 3 % absolute; the “Test with xanthan oxidase, inhibition, NBT” value came out at 1 % absolute.
